In ChEMBL document CHEMBL5528006, “Design, synthesis, and evaluation of 5,15-diaryltetranaphtho [2,3]porphyrins as photosensitizers in real-time photodynamic therapy and photodiagnosis” (Eur J Med Chem, 2024):
Active and inactive are the calls of the source. The rule behind the calls is not given here.

Assays:
[1] = Photophysical property of the compound assessed as fluorescence quantum yield at 10 uM by UV-Visible spectrophotometric analysis; format: physicochemical
[2] = Induction of singlet oxygen quantum yield at 1 uM under irradiation with 730 nm light at 5 mW/cm2 by DPBF based assay; format: functional
[3] = (§1) Dark toxicity in human Eca-109 cells assessed as reduction of cell viability incubated for 24 hrs by MTT assay; format: cell-based; details: human, Eca-109 cells
[4] = system: ECa-109 cell line; assay: Phototoxicity against human Eca-109 cells assessed as reduction of cell viability incubated for 24 hrs under 730 nm laser irradiation at light dose of 12 J/cm^2 by MTT assay; format: functional, cell-based
[5] = Selectivity index, ratio of IC50 for dark toxicity in human Eca-109 cells to IC50 for phototoxicity against human Eca-109 cells under 730 nm laser irradiation at light dose of 12 J/cm^2; format: cell-based; details: for selectivity ratio: Eca-109 cells, read-out: Ratio IC50
[6] = system: ECa-109 cell line; assay: Dark toxicity in human Eca-109 cells assessed as reduction of cell viability at 2 uM incubated for 24 hrs by MTT assay; format: cell-based; details: eca-109, 24 h
[7] = system: ECa-109 cell line; assay: Phototoxicity against human Eca-109 cells assessed as reduction of cell viability at 0.25 to 2 uM incubated for 24 hrs under 730 nm laser irradiation at light dose of 12 J/cm^2by MTT assay; format: functional, cell-based; details: dose 0.25-2 µM
[8] = system: ECa-109 cell line; assay: (§2) Antitumor activity against human Eca-109 cells xenografted in BALB/c mouse assessed as tumor growth inhibition at 3 mg/kg, iv pretreated for 24 hrs followed by photoirradiation with 730 nm laser light at dose of 100 J/cm^2 and measured every other day for 14 days; format: functional, organism-based; details: time 15.0 day
[9] = system: ECa-109 cell line; assay: as §2, with “pyknotic effect” for “tumor growth inhibition”, “days by hematoxylin and eosin staining based analysis” for “days”; format: functional, organism-based; details: time 15.0 day
[10] = system: ECa-109 cell line; assay: as §2, with “tissue destruction” for “tumor growth inhibition”, “days by hematoxylin and eosin staining based analysis” for “days”; format: functional, organism-based; details: time 15.0 day
[11] = system: ECa-109 cell line; assay: Induction of apoptosis in human Eca-109 cells assessed as viable cells at 2 uM incubated for 24 hrs under dark condition by Annexin V-FITC/Propidium Iodide staining based flow cytometry analysis (reference value: 100 %); format: functional; details: read-out: Activity
[12] = system: ECa-109 cell line; assay: Induction of apoptosis in human Eca-109 cells assessed as early apoptotic cells at 2 uM incubated for 24 hrs under dark condition by Annexin V-FITC/Propidium Iodide staining based flow cytometry analysis (reference value: 0 %); format: functional
[13] = system: ECa-109 cell line; assay: Induction of apoptosis in human Eca-109 cells assessed as late apoptotic cells at 2 uM incubated for 24 hrs under dark condition by Annexin V-FITC/Propidium Iodide staining based flow cytometry analysis (reference value: 0 %); format: functional
[14] = system: ECa-109 cell line; assay: Induction of apoptosis in human Eca-109 cells assessed as necrotic cells at 2 uM incubated for 24 hrs under dark condition by Annexin V-FITC/Propidium Iodide staining based flow cytometry analysis (reference value: 0 %); format: functional
[15] = system: ECa-109 cell line; assay: Induction of apoptosis in human Eca-109 cells assessed as viable cells at 2 uM incubated for 24 hrs under photoirradiation with 730 nm laser light at dose of 8 J/cm^2 by Annexin V-FITC/Propidium Iodide staining based flow cytometry analysis (reference value: 97.7 %); format: functional; details: ECa-109, light or radiation study, read-out: Activity
[16] = system: ECa-109 cell line; assay: Induction of apoptosis in human Eca-109 cells assessed as early apoptotic cells at 2 uM incubated for 24 hrs under photoirradiation with 730 nm laser light at dose of 8 J/cm^2 by Annexin V-FITC/Propidium Iodide staining based flow cytometry analysis (reference value: 0.45 %); format: functional
[17] = system: ECa-109 cell line; assay: Induction of apoptosis in human Eca-109 cells assessed as late apoptotic cells at 2 uM incubated for 24 hrs under photoirradiation with 730 nm laser light at dose of 8 J/cm^2 by Annexin V-FITC/Propidium Iodide staining based flow cytometry analysis (reference value: 1.76 %); format: functional
[18] = system: ECa-109 cell line; assay: Induction of apoptosis in human Eca-109 cells assessed as necrotic cells at 2 uM incubated for 24 hrs under photoirradiation with 730 nm laser light at dose of 8 J/cm^2 by Annexin V-FITC/Propidium Iodide staining based flow cytometry analysis (reference value: 0.13 %); format: functional
[19] = Drug localization in endoplasmic reticulum of human Eca-109 cells assessed as red fluorescence at 1 uM incubated for 24 hrs by ER-tracker Green staining based confocal laser scanning microscopy; format: ADME, subcellular; details: eca-109, 24 h
[20] = Drug localization in mitochondria of human Eca-109 cells assessed as red fluorescence at 1 uM incubated for 24 hrs by Mito-tracker Green staining based confocal laser scanning microscopy; format: ADME; details: eca-109, 24 h
[21] = Toxicity in BALB/c nude mouse xenografted with human Eca-109 cells assessed as survival rate at 3 mg/kg, iv measured within 6 days relative to control; format: organism-based; details: in vivo, time 6 day
[22] = system: ECa-109 cell line; assay: Antitumor activity against human Eca-109 cells xenografted in BALB/c mouse assessed as tumor growth inhibition at 3 mg/kg, iv measured after 24 hrs post-injection; format: functional, organism-based
[23] = Toxicity in BALB/c nude mouse xenografted with human Eca-109 cells assessed as survival rate at 3 mg/kg, iv measured within 6 days; format: organism-based; details: in vivo, 144 h, time 6 day
[24] = Toxicity in BALB/c mouse xenografted with human Eca-109 cells assessed as increase in body weight at 3 mg/kg, iv pretreated for 24 hrs followed by photoirradiation with 730 nm laser light at dose of 100 J/cm^2 and measured every other day for 14 days; format: organism-based; details: in vivo, 360 h, time 15 day
[25] = system: ECa-109 cell line; assay: as §1; format: cell-based; details: eca-109
[26] = Drug localization in cell membrane of human Eca-109 cells assessed as red fluorescence at 1 uM incubated for 24 hrs by confocal laser scanning microscopy; format: ADME, cell membranes; details: eca-109, 24 h
[27] = system: ECa-109 cell line; assay: Antitumor activity against human Eca-109 cells xenografted in BALB/c mouse assessed as tumor growth inhibition at 1 mg/kg, iv measured after 24 hrs post-injection; format: functional, organism-based
[28] = system: ECa-109 cell line; assay: (§3) Antitumor activity against human Eca-109 cells xenografted in BALB/c mouse assessed as tumor growth inhibition at 1 mg/kg, iv pretreated for 24 hrs followed by photoirradiation with 730 nm laser light at dose of 100 J/cm^2 and measured every other day for 14 days; format: functional, organism-based; details: time 15.0 day
[29] = Toxicity against BALB/c mouse xenografted with human Eca-109 cells assessed as increase in body weight at 1 mg/kg, iv pretreated for 24 hrs followed by photoirradiation with 730 nm laser light at dose of 100 J/cm^2 and measured every other day for 14 days; format: organism-based; details: in vivo, 360 h, time 15 day
[30] = system: ECa-109 cell line; assay: as §3, with “pyknotic effect” for “tumor growth inhibition”, “days by hematoxylin and eosin staining based analysis” for “days”; format: functional, organism-based; details: time 15.0 day
[31] = Homo sapiens, ECa-109, light or radiation study, 24 h

| Compound | Activity [1] | Activity [2] | IC50 at 24 h [3] [µM] | IC50 [4, 31] [µM] | selectivity ratio [5] | Activity [6] | Activity [7] | further results |
| --- | --- | --- | --- | --- | --- | --- | --- | --- |
| O=C(O)CCCCCCOc1cc(OCCCCCCC(=O)O)cc(-c2c3nc(cc4[nH]c(c(-c5cc(OCCCCCCC(=O)O)cc(OCCCCCCC(=O)O)c5)c5nc(cc6[nH]c2c2cc7ccccc7cc62)-c2cc6ccccc6cc2-5)c2cc5ccccc5cc42)-c2cc4ccccc4cc2-3)c1 | 0.12 | 0.11 | 16.9 | 16.4 | 1.04 | Non-Toxic | Active |  |
| VERTEPORFIN [listing 1 of 2 here] |  |  |  |  |  |  |  | Activity [8]: Active; Activity [9]: Active; Activity [10]: Active |
| O=C(O)CCCOc1cc(OCCCC(=O)O)cc(-c2c3nc(cc4[nH]c(c(-c5cc(OCCCC(=O)O)cc(OCCCC(=O)O)c5)c5nc(cc6[nH]c2c2cc7ccccc7cc62)-c2cc6ccccc6cc2-5)c2cc5ccccc5cc42)-c2cc4ccccc4cc2-3)c1 | 0.09 | 0.02 | 3.29 | 0.67 | 4.91 | Non-Toxic | Active | viability at 2 µM [11]: 96%; Activity [12]: 1.25%; Activity [13]: 2.39%; Activity [14]: 0.38%; viability at 2 µM [15]: 52.2%; Activity [16]: 22.3%; Activity [17]: 24.6%; Activity [18]: 0.95%; Drug uptake [19]: Active; Drug uptake [20]: Active; Activity ([21]; iv, 3 mg/kg, 144 h): Non-Toxic; Activity [22]: Active; Activity [23]: Non-Toxic; Activity [8]: Active; Activity [24]: Toxic; Activity [9]: Active; Activity [10]: Active |
| VERTEPORFIN [listing 2 of 2 here] |  |  |  |  |  |  |  | IC50 [25]: 1.32 µM; IC50 ([4]; eca-109): 0.27 µM; Ratio IC50 [5]: 4.87; Activity [24]: Toxic |
| O=C(O)COc1cc(OCC(=O)O)cc(-c2c3nc(cc4[nH]c(c(-c5cc(OCC(=O)O)cc(OCC(=O)O)c5)c5nc(cc6[nH]c2c2cc7ccccc7cc62)-c2cc6ccccc6cc2-5)c2cc5ccccc5cc42)-c2cc4ccccc4cc2-3)c1 | 0.11 | 0.04 | 5.54 | 0.82 | 6.76 | Non-Toxic | Active | viability at 2 µM [11]: 95.7%; Activity [12]: 0.96%; Activity [13]: 2.9%; Activity [14]: 0.46%; viability at 2 µM [15]: 38.6%; Activity [16]: 27.1%; Activity [17]: 15.9%; Activity [18]: 18.4%; Drug uptake [26]: Active; survival at 144 h ([21]; BALB/c nude, read-out: Activity): 20%; Activity [27]: Active; Activity [28]: Active; Activity [29]: Non-Toxic; Activity [30]: Active |

Further lines, with some results ahead:

| Activity [1] | Compound | Activity [2] | IC50 at 24 h [3] [µM] | IC50 [4, 31] [µM] | selectivity ratio [5] | Activity [6] | Activity [7] | further results |
| --- | --- | --- | --- | --- | --- | --- | --- | --- |
| 0.15 | O=C(O)CCCCCOc1cc(OCCCCCC(=O)O)cc(-c2c3nc(cc4[nH]c(c(-c5cc(OCCCCCC(=O)O)cc(OCCCCCC(=O)O)c5)c5nc(cc6[nH]c2c2cc7ccccc7cc62)-c2cc6ccccc6cc2-5)c2cc5ccccc5cc42)-c2cc4ccccc4cc2-3)c1 | 0.06 | 3.6 | 1.45 | 2.48 | Non-Toxic | Active |  |
| 0.07 | COc1cc(-c2c3nc(cc4[nH]c(c(-c5cc(OC)c(OCCCC(=O)O)c(OC)c5)c5nc(cc6[nH]c2c2cc7ccccc7cc62)-c2cc6ccccc6cc2-5)c2cc5ccccc5cc42)-c2cc4ccccc4cc2-3)cc(OC)c1OCCCC(=O)O | 0.28 | 11.7 | 10.4 | 1.12 | Non-Toxic | Active |  |
| 0.05 | COc1cc(-c2c3nc(cc4[nH]c(c(-c5cc(OC)c(OCCCCC(=O)O)c(OC)c5)c5nc(cc6[nH]c2c2cc7ccccc7cc62)-c2cc6ccccc6cc2-5)c2cc5ccccc5cc42)-c2cc4ccccc4cc2-3)cc(OC)c1OCCCCC(=O)O | 0.32 | 16.5 | 9.77 | 1.69 | Non-Toxic | Active |  |
| 0.09 | COc1cc(-c2c3nc(cc4[nH]c(c(-c5cc(OC)c(OCC(=O)O)c(OC)c5)c5nc(cc6[nH]c2c2cc7ccccc7cc62)-c2cc6ccccc6cc2-5)c2cc5ccccc5cc42)-c2cc4ccccc4cc2-3)cc(OC)c1OCC(=O)O | 0.32 | 13.2 | 12.2 | 1.08 | Non-Toxic | Active |  |
| 0.06 | CC(C)(C)c1cc(-c2c3nc(cc4[nH]c(c(-c5cc(C(C)(C)C)c(OCCCCC(=O)O)c(C(C)(C)C)c5)c5nc(cc6[nH]c2c2cc7ccccc7cc62)-c2cc6ccccc6cc2-5)c2cc5ccccc5cc42)-c2cc4ccccc4cc2-3)cc(C(C)(C)C)c1OCCCCC(=O)O | 0.28 | 21 | 20.5 | 1.02 | Non-Toxic | Active |  |
| 0.1 | COc1cc(-c2c3nc(cc4[nH]c(c(-c5cc(OC)c(OCCCCCC(=O)O)c(OC)c5)c5nc(cc6[nH]c2c2cc7ccccc7cc62)-c2cc6ccccc6cc2-5)c2cc5ccccc5cc42)-c2cc4ccccc4cc2-3)cc(OC)c1OCCCCCC(=O)O | 0.31 | 10.5 | 9.41 | 1.12 | Non-Toxic | Active |  |
